Publication PMC9896412, “The role of invariant surface glycoprotein 75 in xenobiotic acquisition by African trypanosomes” (Microbial Cell, 2023)

Legend:
[1] = biological target: T1, invariant surface glycoprotein 75 (ISG75) (Trypanosoma brucei, UniProt Q1WK95); test: ITC (tag-free protein from S2 cells); format: binding
[2] = biological target: T1, invariant surface glycoprotein 75 (ISG75); test: biochemical

SMILES | Kd [1] [µM] | Kd [2] [µM]
Cc1cc(-c2ccc(/N=N/c3c(S(=O)(=O)O)cc4cc(S(=O)(=O)O)cc(N)c4c3O)c(C)c2)ccc1/N=N/c1c(S(=O)(=O)O)cc2cc(S(=O)(=O)O)cc(N)c2c1O [trypan blue] | 0.6 | –
Cc1ccc(C(=O)Nc2ccc(S(=O)(=O)O)c3cc(S(=O)(=O)O)cc(S(=O)(=O)O)c23)cc1NC(=O)c1cccc(NC(=O)Nc2cccc(C(=O)Nc3cc(C(=O)Nc4ccc(S(=O)(=O)O)c5cc(S(=O)(=O)O)cc(S(=O)(=O)O)c45)ccc3C)c2)c1 [suramin] | – | 3.2
